Assay results taken from PubChem BioAssay AID248 (DTP/NCI, 2004).
Several values for one entry are separate records, joined by “and”; a condition that tells them apart may be missing. Equal entries are not always repeated. Toxic doses and inconclusive results are not listed. Cut-off read from the data, not from the text of the source: active = T/C of 150% or more; inactive = T/C below 125%.

Test system: L1210 leukemia ip in BDF1 mice, survival T/C
Experiment: NCI In Vivo Anticancer Drug Screen. Data for tumor model L1210 Leukemia (intraperitoneal) in B6D2F1 (BDF1) mice
Conditions: endpoint: mean survival time, higher = longer survival
How it was run: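 Tumor cells were implanted, animals were treated, and survival was followed. The result divides the treated measurement by the vehicle-control measurement.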

[1] = dose: 100.0 mg/kg/injection, schedule: Q01DX009 (ip), vehicle: Klucel (hydroxypropylcellulose) (HPC)
[2] = dose: 200.0 mg/kg/injection, schedule: Q01DX009 (ip), vehicle: Klucel (hydroxypropylcellulose) (HPC)
[3] = dose: 400.0 mg/kg/injection, schedule: Q01DX009 (ip), vehicle: Klucel (hydroxypropylcellulose) (HPC)
[4] = dose: 100.0 mg/kg/injection, schedule: Q01DX001 (ip), vehicle: saline
[5] = dose: 200.0 mg/kg/injection, schedule: Q01DX001 (ip), vehicle: saline
[6] = dose: 400.0 mg/kg/injection, schedule: Q01DX001 (ip), vehicle: saline
[7] = dose: 100.0 mg/kg/injection, schedule: Q04DX003 (ip), vehicle: Klucel (hydroxypropylcellulose) (HPC)
[8] = dose: 200.0 mg/kg/injection, schedule: Q04DX003 (ip), vehicle: Klucel (hydroxypropylcellulose) (HPC)
[9] = dose: 400.0 mg/kg/injection, schedule: Q04DX003 (ip), vehicle: Klucel (hydroxypropylcellulose) (HPC)

Measured: T/C

COc1ccc(/C=N/NC(=O)C(O)c2ccccc2)cc1 (stereo not given)
inactive: [1] 92 % of control | [2] 99 % of control | [3] 86 % of control

OCCN(CCO)c1nnc(-c2ccccc2)o1
inactive: [4] 102 % of control | [5] 94 % of control and 90 % of control | [6] 101 % of control and 91 % of control

CCCCC(C)(O)c1cc(OC)cc(OC)c1 (stereo not given)
inactive: dose: 100.0 mg/kg/injection, schedule: Q01DX001 (ip), vehicle: saline with Tween-80 104 % of control | dose: 200.0 mg/kg/injection, schedule: Q01DX001 (ip), vehicle: saline with Tween-80 97 % of control | dose: 400.0 mg/kg/injection, schedule: Q01DX001 (ip), vehicle: saline with Tween-80 87 % of control

CC(C)(C)NC(=O)C1CC2(C)CCC1C2(C)C (stereo not given)
inactive: dose: 75.0 mg/kg/injection, schedule: Q01DX001 (ip), vehicle: other 93 % of control | dose: 150.0 mg/kg/injection, schedule: Q01DX001 (ip), vehicle: other 93 % of control

C=CCC1C(=O)CC(C)(C)CC1=O
inactive: dose: 100.0 mg/kg/injection, schedule: Q04DX003 (ip), vehicle: saline with Tween-80 103 % of control | dose: 200.0 mg/kg/injection, schedule: Q04DX003 (ip), vehicle: saline with Tween-80 103 % of control | dose: 400.0 mg/kg/injection, schedule: Q04DX003 (ip), vehicle: saline with Tween-80 111 % of control

CCC(=O)OC1(c2ccccc2)CCN(C)CC1C (stereo not given)
inactive: dose: 5.0 mg/kg/injection, schedule: Q01DX001 (ip), vehicle: saline 105 % of control | dose: 10.0 mg/kg/injection, schedule: Q01DX001 (ip), vehicle: saline 105 % of control | dose: 20.0 mg/kg/injection, schedule: Q01DX001 (ip), vehicle: saline 102 % of control | dose: 40.0 mg/kg/injection, schedule: Q01DX001 (ip), vehicle: saline 103 % of control | dose: 80.0 mg/kg/injection, schedule: Q01DX001 (ip), vehicle: saline 102 % of control

CCCCCCCCCCCCSCCSCCSCCCCCCCCCCCC
inactive: [7] 93 % of control | [8] 92 % of control | [9] 98 % of control

Cc1[nH]c2ccc(C(C)(C)c3ccccc3)cc2c1C
inactive: [4] 98 % of control | [5] 91 % of control | [6] 88 % of control

Cc1ccccc1N=C(N)Nc1ccccc1C
inactive: dose: 2.5 mg/kg/injection, schedule: Q01DX009 (ip), vehicle: saline with Tween-80 103 % of control | dose: 5.0 mg/kg/injection, schedule: Q01DX001 (ip), vehicle: carboxymethylcellulose (CMC) 108 % of control | dose: 5.0 mg/kg/injection, schedule: Q01DX009 (ip), vehicle: saline with Tween-80 97 % of control | dose: 6.25 mg/kg/injection, schedule: Q01DX009 (ip), vehicle: other 95 % of control | dose: 6.25 mg/kg/injection, schedule: Q04DX003 (ip), vehicle: other 96 % of control | dose: 10.0 mg/kg/injection, schedule: Q01DX001 (ip), vehicle: carboxymethylcellulose (CMC) 114 % of control | dose: 10.0 mg/kg/injection, schedule: Q01DX009 (ip), vehicle: saline with Tween-80 97 % of control | dose: 12.5 mg/kg/injection, schedule: Q01DX001 (ip), vehicle: other 96 % of control | dose: 12.5 mg/kg/injection, schedule: Q01DX009 (ip), vehicle: other 95 % of control | dose: 12.5 mg/kg/injection, schedule: Q04DX003 (ip), vehicle: other 93 % of control | dose: 20.0 mg/kg/injection, schedule: Q01DX001 (ip), vehicle: carboxymethylcellulose (CMC) 117 % of control | dose: 25.0 mg/kg/injection, schedule: Q01DX001 (ip), vehicle: other 96 % of control | dose: 25.0 mg/kg/injection, schedule: Q01DX009 (ip), vehicle: other 94 % of control | dose: 25.0 mg/kg/injection, schedule: Q04DX003 (ip), vehicle: other 100 % of control

CC(C)CCCC(C)C1CCC2C3CCC4=C/C(=N/NC(N)=O)CCC4(C)C3CCC12C (stereo not given)
inactive: dose: 50.0 mg/kg/injection, schedule: Q01DX009 (ip), vehicle: Klucel (hydroxypropylcellulose) (HPC) 97 % of control | [1] 90 % of control | [2] 88 % of control

O=C1NC(=O)C2(CCCc3ccc(N(CCCl)CCCl)cc32)N1 (stereo not given)
inactive: dose: 30.0 mg/kg/injection, schedule: Q01DX015 (ip), vehicle: carboxymethylcellulose (CMC) 102 % of control | dose: 60.0 mg/kg/injection, schedule: Q01DX015 (ip), vehicle: carboxymethylcellulose (CMC) 120 % of control | dose: 120.0 mg/kg/injection, schedule: Q01DX015 (ip), vehicle: carboxymethylcellulose (CMC) 123 % of control | dose: 240.0 mg/kg/injection, schedule: Q01DX015 (ip), vehicle: carboxymethylcellulose (CMC) 107 % of control

CCOC(=O)n1cnc2ncnc(SC)c21
inactive: dose: 25.0 mg/kg/injection, schedule: Q01DX015 (ip), vehicle: saline 102 % of control | dose: 50.0 mg/kg/injection, schedule: Q01DX001 (ip), vehicle: carboxymethylcellulose (CMC) 94 % of control and 106 % of control | dose: 50.0 mg/kg/injection, schedule: Q01DX015 (ip), vehicle: saline 96 % of control | dose: 100.0 mg/kg/injection, schedule: Q01DX001 (ip), vehicle: carboxymethylcellulose (CMC) 109 % of control and 114 % of control | dose: 100.0 mg/kg/injection, schedule: Q01DX015 (ip), vehicle: saline 103 % of control | dose: 200.0 mg/kg/injection, schedule: Q01DX001 (ip), vehicle: carboxymethylcellulose (CMC) 88 % of control | dose: 200.0 mg/kg/injection, schedule: Q01DX015 (ip), vehicle: saline 91 % of control | dose: 400.0 mg/kg/injection, schedule: Q01DX001 (ip), vehicle: carboxymethylcellulose (CMC) 109 % of control

CCCCCCCCCCC/C=N/NC(=O)c1ccc[n+](C)c1
inactive: dose: 50.0 mg/kg/injection, schedule: Q01DX009 (ip), vehicle: saline 108 % of control | dose: 100.0 mg/kg/injection, schedule: Q01DX009 (ip), vehicle: saline 108 % of control | dose: 200.0 mg/kg/injection, schedule: Q01DX009 (ip), vehicle: saline 110 % of control

CCOC(=O)C(Cl)C(C)(O)c1ccccc1 (stereo not given)
inactive: dose: 100.0 mg/kg/injection, schedule: Q04DX002 (ip), vehicle: saline with Tween-80 95 % of control | dose: 200.0 mg/kg/injection, schedule: Q04DX002 (ip), vehicle: saline with Tween-80 95 % of control

Oc1ccccc1C=NCCN1CC1.Oc1ccccc1C=NCCN1CC1.[Co+2]
inactive: dose: 20.0 mg/kg/injection, schedule: Q04DX002 (ip), vehicle: saline + alcohol 102 % of control | dose: 40.0 mg/kg/injection, schedule: Q04DX002 (ip), vehicle: saline + alcohol 106 % of control | dose: 80.0 mg/kg/injection, schedule: Q04DX002 (ip), vehicle: saline + alcohol 98 % of control

O=[N+]([O-])c1ccc(N2N=NC(c3ccccc3)C2(c2ccccc2)N2CCOCC2)cc1 (stereo not given)
inactive: dose: 150.0 mg/kg/injection, schedule: Q01DX001 (ip), vehicle: saline 89 % of control

OCc1ccccc1Cn1ccnc1
inactive: dose: 100.0 mg/kg/injection, schedule: Q01DX001 (ip), vehicle: Klucel (hydroxypropylcellulose) (HPC) 111 % of control | [1] 97 % of control and 105 % of control | dose: 100.0 mg/kg/injection, schedule: Q04DX002 (ip), vehicle: Klucel (hydroxypropylcellulose) (HPC) 102 % of control and 103 % of control | [7] 105 % of control | dose: 200.0 mg/kg/injection, schedule: Q01DX001 (ip), vehicle: Klucel (hydroxypropylcellulose) (HPC) 103 % of control | [2] 94 % of control and 87 % of control | dose: 200.0 mg/kg/injection, schedule: Q04DX002 (ip), vehicle: Klucel (hydroxypropylcellulose) (HPC) 97 % of control and 88 % of control | [8] 111 % of control | dose: 400.0 mg/kg/injection, schedule: Q01DX001 (ip), vehicle: Klucel (hydroxypropylcellulose) (HPC) 99 % of control | [3] 94 % of control and 96 % of control | dose: 400.0 mg/kg/injection, schedule: Q04DX002 (ip), vehicle: Klucel (hydroxypropylcellulose) (HPC) 97 % of control and 100 % of control | [9] 110 % of control
